Experiments:
[1] = molecular target: T1, recombinant mammalian TrxR1/Trx1 (Rattus norvegicus, UniProt O89049); experiment: Reduction of purified mAb B by recombinant TrxR1/Trx1, capillary electrophoresis; type: biochemical, human (Trx1)
T1 construct: purchased Cayman Chemical (TrxR1); Abcam (Trx1)
T1 sequence (O89049 1-499): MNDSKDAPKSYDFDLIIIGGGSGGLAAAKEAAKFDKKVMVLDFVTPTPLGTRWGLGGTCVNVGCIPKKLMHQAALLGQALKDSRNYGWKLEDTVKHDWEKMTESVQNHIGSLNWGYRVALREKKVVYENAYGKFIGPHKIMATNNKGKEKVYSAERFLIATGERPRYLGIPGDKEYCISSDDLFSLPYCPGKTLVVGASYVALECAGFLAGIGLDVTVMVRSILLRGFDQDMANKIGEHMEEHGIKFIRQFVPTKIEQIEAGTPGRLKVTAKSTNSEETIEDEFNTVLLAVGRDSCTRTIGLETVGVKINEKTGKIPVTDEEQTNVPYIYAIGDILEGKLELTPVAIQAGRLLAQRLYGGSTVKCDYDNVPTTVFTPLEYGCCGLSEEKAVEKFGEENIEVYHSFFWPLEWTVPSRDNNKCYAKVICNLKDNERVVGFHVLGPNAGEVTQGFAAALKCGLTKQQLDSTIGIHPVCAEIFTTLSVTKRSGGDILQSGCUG
Procedure: (§1) Antibody reduction in cell culture supernatant samples was measured by detecting the presence of reduced species via capillary electrophoresis using standard procedures on a 2100 Bioanalyzer system (Agilent Technologies, Santa Clara, Calif.). Samples were diluted 1-6 fold depending on titer and analyzed under non-reducing conditions following 2100 Bioanalyzer standard protocols. Supernatant samples from 3 L bioreactors were stored frozen until all samples had been acquired and were ready for analysis. Samples were thawed on ice and analyzed immediately to evaluate the amount of reduced antibody in the reactor on each day of the run.
The role of each enzymatic system in antibody reduction was evaluated by determining the conditions under which these reductase systems cause antibody reduction. Using purified recombinant mammalian reductases, the thioredoxin system was evaluated by spiking purified mAb B into five solutions containing: 1) no enzymes, 2) 1 μM TrxR1, 3) 0.1 μM TrxR1, 4) […], and 5) 0.1 μM TrxR1+2.5 μM Trx1. All samples contained 0.4 mM NADPH and were stored at room temperature overnight. Digital gel-like images were obtained from microchip-based capillary electrophoresis analysis.
(§2) To confirm that the activity from a particular reductase system can translate into reduced antibody, a second method was developed to determine the impact of each reductase system on antibody reduction. The principle of the reduction assay is similar to the reductase activity assay described above. The percent of protein reduction without an inhibitor was compared to the percent of protein reduction in the presence of specific inhibitors for GR or TrxR1. In this assay, purified mAb B was spiked into solutions containing recombinant mammalian TrxR1/Trx1 or recombinant mammalian GR/GSSG and stored in an oxygen-free environment overnight. The percent of reduced mAb B antibody was evaluated using capillary electrophoresis, as set forth above.

[2] = system: GR isolated from CHO cell culture; experiment: mAb B reduction by pooled CHO fractions with NADPH and GSSG; type: biochemical, Chinese Hamster; conditions: 3 μM Cu^2+ or 100 μM ATG, overnight room temperature
Procedure: (§3) Purified mAb B was spiked into several solutions containing different combinations of the pooled fractions (PF), recombinant Trx1, GSSG, NADPH, ATG, and Cu^2+. The solutions were incubated at room temperature overnight and the amount of intact antibody remaining was determined by capillary electrophoresis according to the protocol described above. In the first set of samples, purified mAb B was spiked into the pooled fractions with, and without, NADPH.
In the second set of samples, purified mAb B was spiked into solutions containing the pooled enzymes, NADPH, GSSG, and either no inhibitor, 3 μM Cu^2+, or 100 μM ATG. […] This solution contained GR, GSSG, and NADPH, which are needed for the glutathione system.

[3] = molecular target: T2, recombinant mammalian GR/GSSG (Homo sapiens, UniProt P00390); experiment: Reduction of purified mAb B by recombinant GR/GSSG, capillary electrophoresis; type: biochemical
T2 construct: purchased Abcam
T2 sequence (P00390 44-522): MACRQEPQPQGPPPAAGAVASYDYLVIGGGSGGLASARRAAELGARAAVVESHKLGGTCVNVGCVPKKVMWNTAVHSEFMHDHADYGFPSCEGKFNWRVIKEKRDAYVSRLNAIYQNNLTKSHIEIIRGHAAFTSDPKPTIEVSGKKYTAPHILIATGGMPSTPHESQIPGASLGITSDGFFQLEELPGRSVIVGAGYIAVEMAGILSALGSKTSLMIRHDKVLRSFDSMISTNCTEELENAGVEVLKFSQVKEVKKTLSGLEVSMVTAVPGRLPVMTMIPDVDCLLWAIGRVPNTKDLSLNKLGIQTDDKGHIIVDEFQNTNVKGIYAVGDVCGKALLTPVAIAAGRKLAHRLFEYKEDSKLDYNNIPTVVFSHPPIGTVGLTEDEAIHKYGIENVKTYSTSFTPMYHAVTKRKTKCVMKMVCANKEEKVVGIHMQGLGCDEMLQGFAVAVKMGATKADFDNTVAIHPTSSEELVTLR
Procedure: as §1
Using the same approach with recombinant mammalian enzymes, the glutathione system was evaluated by spiking mAb B into five solutions containing: 1) no enzyme, 2) 1 mM GSSG (oxidized glutathione), 3) 0.2 μM GR (glutathione reductase), 4) 0.2 μM GR with 1 mM GSSG, and 5) 0.02 μM GR with 1 mM GSSG. […] The results indicated a minimal mAb B reduction in the solutions containing GSSG alone. This is the result of an impurity in the GSSG. […] was reduced in the solutions containing both GR and GSSG.
as §2

[4] = system: TrxR1 purified from CHO cell cultures; experiment: mAb B reduction by pooled CHO fractions with NADPH and Trx1; type: biochemical, Chinese Hamster; conditions: 3 μM Cu^2+ or 100 μM ATG, overnight room temperature
Procedure: as §3
The third set of solutions contained the pooled enzymes, NADPH, Trx1, and either no inhibitor, 3 μM Cu^2+, or 100 μM ATG. […] In the final sample as a control, mAb B was spiked into a solution containing NADPH, Trx1, and GSSG.

[5] = Antibody reduction potential assay (Vacuum/GX); type: physicochemical; conditions: EDTA 9.5, 19, 38 mM or Cystine 4 and 8 mM
Procedure: Bioreactor samples (1 mL) were obtained daily and centrifuged at 3000-4000 RPM and the supernatant was frozen immediately at −80° C. On the day prior to the assay, the samples were removed from −80° C. storage, thawed, and placed in a vacuum chamber at room temperature overnight to induce reduction of the monoclonal antibody without the interference of oxygen. After the vacuum hold, the samples were analyzed for protein fragmentation under non-reducing conditions using a BioAnalyzer system (Agilent Technologies) or a LABCHIP® GXII system (PerkinElmer) to detect antibody fragments resulting from the breakage of the antibody's interchain disulfide bonds. […]
Samples were stored frozen until analyzed. […] After being denatured and the free thiols being capped by NEM, the samples were analyzed using a Perkin Elmer Labchip® GXII (Perkin Elmer, Waltham, Mass.) to perform size fractionation and quantification. Using the Labchip® GXII, the protein and fragments were detected by laser-induced fluorescence and translated into gel-like images (bands) and electropherograms (peaks).
Reduction potential, i.e. the potential of the molecule to be reduced under anaerobic condition, was measured by subjecting samples to vacuum analysis as described above followed addition of non-reducing sample buffer. […]

[6] = Antibody aggregation analysis (HP-SEC); type: physicochemical; conditions: EDTA 9.5, 19, 38 mM or Cystine 4 and 8 mM
Procedure: The percent of antibody aggregates was determined using standard size exclusion chromatography (HP-SEC) methods. An Agilent 1200 series system was used with a Tosoh Bioscience TSKgel G3000SW XL column (Tosoh Bioscience LLC, King of Prussia, Pa.) (7.8 mm×300 mm) at 1 mL/min flow rate using a mobile phase buffer of 0.1 M sodium phosphate, 0.1 M sodium sulfate, pH 6.8. The absorbance chromatography at 280 nm was used to quantify the results.

[7] = system: GR purified from a day 14 culture of cell line B; experiment: DTNB reductase activity of 2'5'-ADP column fractions from cell line B, GR; type: biochemical, Chinese Hamster; conditions: 100 μM 2-AAPA, fractions B1-C2, depending on the fraction
Procedure: Reductases were purified from cell samples to verify the specificity of reductase inhibitors. A day 14 culture of mAb B (IgG antibody produced by CHO cell line B CHO-K1SV) was pelleted by centrifugation, washed once with PBS and re-suspended in 50 mM tris buffer, pH 7.5. The solution was homogenized and filtered at 0.2 μm prior to loading onto a column of 2′5′-ADP Sepharose 4B resin. The reductases were eluted using a linearly increasing gradient of 0 to 0.3 mM NADP^+ in the same tris buffer (Yadav, et al., Parasitol. Int., 62:193-198, 2013). The reductase activity of the collected fractions was determined using the assay described in Example 3. Additionally, western blot analysis was used to detect TrxR1 and GR in the collected fractions.
The reductase-specific inhibitors were evaluated above using purified recombinant mammalian enzymes from rat and human. […] The added activity from the two systems was approximately equal to the total activity detected in the absence of an inhibitor for each fraction. […] That is, if the reductase inhibitors were non-specifically inhibiting both enzymatic systems, the added reductase activity would have been […] than the reductase activity detected without any added inhibitor. […] The fractions with reductase activity were pooled and further evaluated at the inhibitor concentrations assayed in the antibody reduction assay.

GR/GSSG = molecular target: T3, GR/GSSG (Homo sapiens, UniProt P00390); experiment: DTNB reductase activity assay, recombinant GR/GSSG; type: biochemical; conditions: 2-AAPA at 100 μM and higher
T3 construct: purchased Abcam
T3 sequence (P00390 44-522): T2 sequence (P00390 44-522)
Procedure: (§4) Briefly, culture samples were thawed on ice. […] The samples were then allowed to incubate 5 minutes.
(§5) Activity of the reductases was calculated as follows. […] The activity was then calculated by the following equation: […]

glutathione system = experiment: Reductase activity assay, day 14 culture samples, glutathione system; type: biochemical, Chinese Hamster; conditions: day 14, 100 μM 2-AAPA
Procedure: The total reductase activity was determined in the absence of any inhibitor. […] Thus, the difference in activity between a sample with ATG, and a sample without any inhibitor, indicates the amount of reductase activity contributed the thioredoxin system. […] Thus, the difference in reductase activity between a sample with 2-AAPA, and a sample without any inhibitor, indicates the amount of reductase activity contributed by the glutathione system. Although ATG and 2-AAPA are provided as exemplary specific inhibitors, other specific inhibitors discussed above can be employed in this assay instead of ATG and 2-AAPA.
as §4, §5
The reductase activities of the thioredoxin and glutathione systems were evaluated in day 14 culture samples of the same CHO cell lines A, B, C, and D, using the previously evaluated specific inhibitors 2-AAPA and ATG at 100 μM and 0.5 μM respectively. Data in FIG. 6A were normalized to viable cell density. Cell lines A, B, and C were described in Example 6, above. Cell line D is the cell line CHO CAT-S, and is stably transfected to produce an IgG1 mAb (mAb D).

recombinant TrxR1/Trx1 = molecular target: T4, recombinant TrxR1/Trx1 (Rattus norvegicus, UniProt O89049); experiment: DTNB reductase activity assay, recombinant TrxR1/Trx1; conditions: 2-AAPA 10 μM to 200 μM
T4 sequence (O89049 1-499): T1 sequence (O89049 1-499)
Procedure: This assay allows determination of the total reductase activity in a culture sample, as well as determination of the individual contribution made by thioredoxin reductase and glutathione reductase to the total reductase activity of the sample. In this assay, culture samples (cells+media) from 3 L bioreactors were stored frozen until the end of the run, after which the samples were centrifuged to remove the cell pellet then the resulting supernatant was diluted 20-fold into 100 mM tris buffer, pH 7.4, containing 0.4 mM NADPH, 0.15 mM oxidized glutathione, and 3 mM DTNB with the indicated concentration of specific reductase inhibitor. Addition of the enzyme specific inhibitors to the samples allowed the total reductase activity to be determined as well as the individual activity from the thioredoxin and glutathione systems. Reductase activity was monitored by spectroscopic measurement of the increase in absorbance at a wavelength of 412 nm. […] The detected increase in absorbance at this wavelength is caused by the reduction of DTNB (Arnér, ESJ, Biochim. Biophys. Acta—Gen. Subj., 1790:495-526, 2009).
Briefly, culture samples were thawed on ice. […] The absorbance at a wavelength of 412 nm was determined every 30 seconds, for 20 minutes.
Activity of the reductases was calculated as follows. The change in absorbance per minute (Δ412) for each well was determined. […]

Q: With `O=S(=O)([O-])[O-].[Cu+2]` [Cu^2+, copper (II) sulfate] as the molecule, how does the “intact antibody remaining in the TrxR1/Trx1 sample” value ([1]; 3 μM Cu^2+) read?
A: 20%

Q: And the “antibody reduction from the thioredoxin system” value ([1]; Cu^2+ 3-100 μM)?
A: only partially inhibited

Q: And the “antibody reduction in pooled enzymes, NADPH, GSSG” value [2]?
A: completely inhibited all antibody reduction

Q: And the “antibody reduction caused by GR/GSSG” value ([3]; 3 μM Cu^2+)?
A: almost completely inhibited

Q: What about the “antibody reduction in samples containing GR/GSSG” value ([3]; Cu^2+ 3-100 μM) of the same molecule?
A: prevented antibody reduction

Q: What about the “antibody reduction in pooled enzymes, NADPH, Trx1” value [4] of the same molecule?
A: marginally prevented antibody reduction

Q: Which results are given for `O=C(O)CN(CCN(CC(=O)O)CC(=O)O)CC(=O)O` [EDTA, ethylenediamine tetraacetic acid]?
A: reduction potential at the time of harvest of sheared mAb E material [5]: no reduction potential; aggregation of sheared mAb E material after 8 days at 2-8° C. [6]: limited the extent of mAb aggregation

Q: Which “share of reductase activity from glutathione reductase, determined with the inhibitor” value [7] does the source give for `CC(=O)NC(CSC(=S)Nc1ccc(NC(=S)SCC(NC(C)=O)C(=O)O)cc1)C(=O)O` (stereo not shown) [2-AAPA, 2-Acetylamino-3-[4-(2-acetylamino-2-carboxyethylsulfanylthiocarbonyl-amino)phenylthiocarbamoylsulfanyl]propionic acid] here?
A: 25-40%

Q: And the GR/GSSG activity (GR/GSSG)?
A: completely inhibiting

Q: And the “share of total reductase activity caused by the glutathione system” value (“share of total reductase activity caused” for short) (glutathione system; cell line A)?
A: 70%

Q: And the “share of total reductase activity caused” value (glutathione system; cell line B)?
A: 45%

Q: And the “share of total reductase activity caused” value (glutathione system; cell line C)?
A: 5%

Q: And the “share of total reductase activity caused” value (glutathione system; cell line D)?
A: 45%

Q: And the “effect on the reductase activity of TrxR1/Trx1 solutions” value (recombinant TrxR1/Trx1)?
A: minimal effect

Q: And the “behaviour of 2-AAPA in the antibody reduction assay” value ([3]; same method as for ATG)?
A: directly caused antibody reduction

Reference: US20190112357A1, “PREVENTION OF PROTEIN DISULFIDE BOND REDUCTION” (MedImmune, LLC, priority 2016, published 2019)
